Data set [1] deals with Colinus virginianus. As to conditions: for NOEC: reproduction developmental.
Data set [2] has as its system Cyprinus carpio. The note with it: acute; duration: 96 hours; mortality.
Data set [3] has as its system Daphnia magna. As to conditions: chronic/long-term; duration: 21 days; reproduction.
The subject of data set [4] is Neomysis kadiakensis. As to conditions: chronic/long-term; duration: 28 days; reproduction.
The subject of data set [5] is Rattus norvegicus.
Data set [6] deals with Tagia sp. As to conditions: acute; duration: 14 days; mortality.
The subject of data set [7] is Pimephales promelas. The note with it: chronic/long-term; duration: 32 days; growth.
In data set [8] the test system is Anas platyrhynchos. The note with it: oral, mortality.
Data set [9] deals with Apis mellifera. As to conditions: acute; oral; unspecified; mortality.
The subject of data set [10] is Mus musculus. As to conditions: acute; oral; mortality.
The test system of data set [11] is Aphidius rhopalosiphi. Put plainly: LR50; higher = less toxic. As to conditions: not reported; mortality.
Data set [12] concerns Typhlodromus pyri. Put plainly: LR50; higher = less toxic. The note with it: not reported; mortality.
Setting [13] is: subchronic, duration: 90 days, oral.

Consider three molecules from EPA's ToxValDB 9.5 (doi:10.2903/j.efsa.2010.1905).

The structures appear in SMILES notation. Converted amounts (≈) assume the structure as drawn.

Consider `CCCCOC(=O)C(C)Oc1ccc(Oc2ccc(C(F)(F)F)cn2)cc1` (configuration not stated) [Fluazifop-butyl], for which the results for the NOEC in data set [1], in [3] and in [4] were 3.95 mg/kg-day, 0.25 mg/L and 0.0477 mg/L, respectively. For the same molecule, the LC50 in data set [2] is 1.31 mg/L (≈ 3.42 µM); in data set [6], over 1000 mg/kg. Moreover, the NOAEL (usually the highest tested level that showed no adverse finding) in data set [5] (reproduction developmental, reproduction) amounted to 6.72 mg/kg-day.

`C[C@@H](Oc1ccc(Oc2ccc(C(F)(F)F)cn2)cc1)C(=O)O` [Fluazifop-P]: the NOEC in [7] is 1.46 mg/L. Also, the NOAEL in data set [5] (developmental, development) turned out to be 2 mg/kg-day; in data set [5] (setting [13]) it was 0.9 mg/kg-day.

For the molecule `CCCCOC(=O)[C@@H](C)Oc1ccc(Oc2ccc(C(F)(F)F)cn2)cc1` [Fluazifop-P-butyl], the LD50 in data set [8] (acute, unspecified) was over 3960 mg/kg-day; in data set [9], over 200 µg/piece; in data set [1] (acute, oral, mortality), over 2000 mg/kg-day; in [10], over 2000 mg/kg-day. Further, the LC50 in data set [8] (short-term, feed) was over 942 mg/kg-day; in data set [1] (acute, oral, diet, mortality), over 1070 mg/kg-day. In addition, the NOEC in data set [1] is 86.8 mg/kg-day; in data set [7], 0.077 mg/L. Further, the no observed adverse effect level (NOAEL) was found to be 6.72 mg/kg-day in data set [5] (chronic, mortality); 2 mg/kg-day in data set [5] (developmental, development); 0.9 mg/kg-day in [5] (setting [13]). For the same molecule, the results for the LR50 in data set [11] and in data set [12] were 177 g/ha and 5.6 g/ha, respectively.
